Laboratory results: ChEMBL document CHEMBL2331487, “Synthesis and antiplasmodial and antimycobacterial evaluation of new nitroimidazole and nitroimidazooxazine derivatives” (ACS Med Chem Lett, 2013)
pIC50: −log10 of the molar value. Converted amounts (≈) assume the structure as drawn.

Key:
[1] = Selectivity index, ratio of IC50 for rat L6 cells to IC50 for Plasmodium falciparum K1 by [3H] hypoxanthine uptake inhibition assay; type: toxicity, cell-based; details: rat L6 cells versus Plasmodium falciparum K1, read-out: Ratio IC50
Plasmodium falciparum = test: Antimalarial activity against Plasmodium falciparum K1 assessed as inhibition of [3H] hypoxanthine uptake by liquid scintillation counting; type: functional, organism-based
[2] = system: Mycobacterium tuberculosis; test: Antimycobacterial activity Mycobacterium tuberculosis H37Rv assessed as growth inhibition measured at day 7 by broth microdilution method; type: functional; details: 168 h
L6 = test: Cytotoxicity against rat L6 cells after 72 hrs by fluorometric analysis; type: cell-based; details: L6, 72 h

Compound CC(C)(C)n1nnnc1C(NCCNc1ccnc2cc(Cl)ccc12)c1ccc(CO[C@@H]2COc3nc([N+](=O)[O-])cn3C2)cc1 (some centres undefined) has a selectivity ratio [1] of 246, a pIC50 (Plasmodium falciparum) of 7.00 and an MIC99 [2] of 0.313 µM (≈ 0.198 µg/mL). It also gave a pIC50 (L6) of 4.61.
CC(C)(C)n1nnnc1C(NCCCNc1ccnc2cc(Cl)ccc12)c1ccc(CO[C@@H]2COc3nc([N+](=O)[O-])cn3C2)cc1 (some centres undefined) gave a selectivity ratio [1] of 85, a pIC50 (Plasmodium falciparum) of 6.31 and a pIC50 (L6) of 4.38.
For CC(C)(C)n1nnnc1C(NCCCCNc1ccnc2cc(Cl)ccc12)c1ccc(CO[C@@H]2COc3nc([N+](=O)[O-])cn3C2)cc1 (some centres undefined), the selectivity ratio [1] was 175, the pIC50 (Plasmodium falciparum) was 6.79 and the MIC99 [2] was 0.625 µM (≈ 0.413 µg/mL). For the same compound, the pIC50 (L6) was 4.53.
COc1cc(NC(C)CCCNC(c2ccc(CO[C@@H]3COc4nc([N+](=O)[O-])cn4C3)cc2)c2nnnn2C(C)(C)C)c2ncccc2c1 (some centres undefined) gave a selectivity ratio [1] of 37, a pIC50 (Plasmodium falciparum) of 5.69 and an MIC99 [2] of 0.625 µM (≈ 0.419 µg/mL). It also gave a pIC50 (L6) of 4.12.
COc1cc(NC(C)CCCNC(c2cccc(CO[C@@H]3COc4nc([N+](=O)[O-])cn4C3)c2)c2nnnn2C(C)(C)C)c2ncccc2c1 (some centres undefined) gave a selectivity ratio [1] of 145, a pIC50 (Plasmodium falciparum) of 6.01 and an MIC99 [2] of 5 µM (≈ 3.35 µg/mL). For the same compound, the pIC50 (L6) was 3.85.
With CN(CCO)CCNc1ccnc2cc(Cl)ccc12 the selectivity ratio [1] was 995, the pIC50 (Plasmodium falciparum) was 7.11 and the MIC99 [2] was > 160 µM. It also gave a pIC50 (L6) of 4.11.
For CN(CCO)CCCNc1ccnc2cc(Cl)ccc12, the selectivity ratio [1] was 63, the pIC50 (Plasmodium falciparum) was 6.41 and the MIC99 [2] was > 160 µM. It also gave a pIC50 (L6) of 4.61.
O=[N+]([O-])c1cn2c(n1)OC[C@@H](OCCCNc1ccnc3cc(Cl)ccc13)C2 gave a selectivity ratio [1] of 12.8, a pIC50 (Plasmodium falciparum) of 4.98 and an MIC99 [2] of 1.25 µM (≈ 0.505 µg/mL). It also gave a pIC50 (L6) of 3.87.
Compound O=Cc1ccc(CO[C@@H]2COc3nc([N+](=O)[O-])cn3C2)cc1 has an MIC99 [2] of 0.25 µM (≈ 0.0758 µg/mL).
Compound O=Cc1cccc(CO[C@@H]2COc3nc([N+](=O)[O-])cn3C2)c1 has a selectivity ratio [1] of 0.54, a pIC50 (Plasmodium falciparum) of 4.20 and an MIC99 [2] of 0.625 µM (≈ 0.19 µg/mL). The pIC50 (L6) was 4.46.
CN(C)C(c1ccc(CO[C@@H]2COc3nc([N+](=O)[O-])cn3C2)cc1)c1nnnn1C(C)(C)C (some centres undefined) showed a selectivity ratio [1] of 11.2, a pIC50 (Plasmodium falciparum) of 4.80 and an MIC99 [2] of 0.625 µM (≈ 0.285 µg/mL). It also gave a pIC50 (L6) of 3.75.
CCN(CC)C(c1ccc(CO[C@@H]2COc3nc([N+](=O)[O-])cn3C2)cc1)c1nnnn1C(C)(C)C (some centres undefined) gave a selectivity ratio [1] of 14.2, a pIC50 (Plasmodium falciparum) of 5.10 and an MIC99 [2] of 0.313 µM (≈ 0.152 µg/mL). It also gave a pIC50 (L6) of 3.95.
CC(C)(C)n1nnnc1C(c1ccc(CO[C@@H]2COc3nc([N+](=O)[O-])cn3C2)cc1)N1CCCC1 (some centres undefined) gave a selectivity ratio [1] of 8.65, a pIC50 (Plasmodium falciparum) of 5.06 and an MIC99 [2] of 0.313 µM (≈ 0.151 µg/mL). For the same compound, the pIC50 (L6) was 4.12.
In the case of OCCNc1ccnc2cc(Cl)ccc12, the selectivity ratio [1] was 159, the pIC50 (Plasmodium falciparum) was 5.83 and the MIC99 [2] was > 160 µM. The pIC50 (L6) was 3.63.
For OCCCNc1ccnc2cc(Cl)ccc12, the selectivity ratio [1] was 164, the pIC50 (Plasmodium falciparum) was 5.96 and the MIC99 [2] was > 160 µM. For the same compound, the pIC50 (L6) was 3.75.
With O=[N+]([O-])c1cn2c(n1)OC[C@@H](O)C2 the pIC50 (Plasmodium falciparum) was < 3.57, the MIC99 [2] was 40 µM (≈ 7.41 µg/mL) and the pIC50 (L6) was 3.48.
With NCCNc1ccnc2cc(Cl)ccc12 the selectivity ratio [1] was 71.2, the pIC50 (Plasmodium falciparum) was 6.53 and the MIC99 [2] was > 160 µM. The pIC50 (L6) was 4.67.
In the case of CCN(CC)CCCC(C)Nc1ccnc2cc(Cl)ccc12 (centres undefined) [CHLOROQUINE], the MIC99 [2] was > 160 µM.
With NC[C@H]1O[C@H](O[C@H]2[C@H](O)[C@@H](O[C@H]3O[C@H](CO)[C@@H](O)[C@H](N)[C@H]3O)[C@H](N)C[C@@H]2N)[C@H](O)[C@@H](O)[C@@H]1O [KANAMYCIN] the MIC99 [2] was 5.4 µM (≈ 2.62 µg/mL).
With COc1cc([C@@H]2c3cc4c(cc3[C@H](O)[C@H]3COC(=O)[C@H]23)OCO4)cc(OC)c1OC [PODOFILOX] the pIC50 (L6) was 7.71.
Compound COc1cc(NC(C)CCCN)c2ncccc2c1 (centres undefined) [PRIMAQUINE] has a pIC50 (Plasmodium falciparum) of 6.19 and an MIC99 [2] of 80 µM (≈ 20.7 µg/mL).
Work on CN[C@@H]1[C@H](O[C@H]2[C@H](O[C@H]3[C@H](O)[C@@H](O)[C@H](N=C(N)N)[C@@H](O)[C@@H]3N=C(N)N)O[C@@H](C)[C@]2(O)C=O)O[C@@H](CO)[C@H](O)[C@H]1O [STREPTOMYCIN] yielded an MIC99 [2] of 0.27 µM (≈ 0.157 µg/mL).
